These results are taken from patent US5362629A, “Detection of immunosuppressants” (President and Fellows of Harvard College, priority 1991, dated 1994).

Series [1] deals with set of four target proteins (calcineurin-calmodulin) adsorbed on GFK-FK506. Put plainly: Competitive binding / elution of target proteins from glutathione-Sepharose-immobilized GFK-FK506. Set-up: species or system bovine. The protocol: A competitive binding experiment was carried out with recombinant FKBP12 and cyclophilin A (Standaert et al., 1990, supra, Lui et al., 1990, Proc. Natl. Acad. Sci. 87:2304) and their respective drug complexes. After the set of four target proteins were adsorbed onto the glutathione Sepharose affinity matrix, elution was attempted with immunophilins, the drugs, or the immunophilin-drug complexes. The set of four proteins were eluted from glutathione-sepharoseimmobilized GFK-FK506 with both recombinant complexes. In contrast, these proteins were not eluted by free immunophilins or unbound drugs.
To further test the importance of divalent metal ions for interaction between immunophilin-drug complexes and target proteins, the adsorption experiment was performed in the presence of the Ca^2+ chelator EGTA.

Series [2] addresses T1, calcineurin-Ca2+/calmodulin (Bos taurus, UniProt P48452+P63099).
T1 construct: Bovine brain calcineurin and calmodulin were purchased from Sigma Chemical; purchased Sigma Chemical (St. Louis, Mo.); also a gift from Dr. Claude B. Klee; host or cells: bovine brain
The experiment in a line: Calcineurin phosphatase assay with para-nitrophenyl phosphate. The class given is biochemical, bovine. The conditions noted are these: Ca2+ and calmodulin present. An excerpt: The small para-nitrophenyl phosphate reagent presumably interacts with calcineurin nearly exclusively via active site residues, whereas the phosphopeptide, which is comprised of a sequence derived from the phosphorylation site on the RII subunit of cyclic AMP-dependent protein kinase (a calcineurin substrate) (Blumenthal et al., 1986, J. Biol. Chem 261:8140), is presumed to make extensive contact with the enzyme.

For series [3], the target named is T2, calcineurin (Bos taurus, UniProt P48452+P63099).
T2 construct: Bovine brain calcineurin and calmodulin were purchased from Sigma Chemical; purchased Sigma Chemical (St. Louis, Mo.); also a gift from Dr. Claude B. Klee; host or cells: bovine brain
Put plainly: Calcineurin phosphatase assay with 32P-phosphopeptide (RII subunit) substrate. It is filed as biochemical, bovine. The conditions noted are these: in the presence or absence of calmodulin; Ca2+. The method, then: Calcineurin is known to be a Ca^2+, calmodulin-dependent protein phosphatase (Stewart et al., 1982, FEBS. Lett. 137:80). Using a phosphorylated peptide fragment from the regulatory subunit of cAMP-dependent kinase as a substrate, the phosphatase activity of the calcineurin was assayed in the presence of the immunophilins, the individual drugs, and their respective complexes with or without calmodulin.
Calcineurin phosphatase assays were carried out essentially as described previously (Manalan et al. 1983, Proc. Natl. Acad. Sci. USA 80:4291) with minor modifications. The substrate used was a synthetic peptide corresponding to the phosphorylation site of the RII subunit of cyclic AMP-dependent protein kinase […] (Sequence I.D. No. 1), which was phosphorylated with ^32 p-labeled ATP at the serine residue. The assay buffer consists of 40 mM TrisHCl (pH 7.5), 0.1 M NaCl, 6 mM MgCl2, 0.1 mM CaCl2, 0.1 mg/mL bovine serum albumin, and 0.5 mM dithiothreitol. The assay mixture (60 μl) contained 40 nM calcineurin, and 80 nM calmodulin (when present), and 2 μM phosphopeptide in addition to the assay buffer. […] Therefore, the drug solutions were prepared in DMSO as follows. DMSO stock solutions of the drugs were prepared (3000×final concentration) and then diluted 100×with the assay buffer. 2 μL was added to the incubation mixture giving a final concentration of DMSO of less than 0.04% in the final assay mixture. The incubations were carried out at 30° C. for 10 min before the reaction was stopped by addition of the stop solution (5% trichloroacetic acid, 0.1 M potassium phosphate) and loaded onto 0.5 ml Dowex AG 50W-X8 (200-800 mesh, Bio-Rad) columns. After the [^32 P]-inorganic phosphate was eluted from the column, it was mixed with 12 ml of ScintiVerse II (Fisher Scientific) and counted on a Beckman LS1801 Liquid Scintillation Systems. Bovine brain calcineurin and calmodulin were purchased from Sigma Chemical (St. Louis, Mo.). ^32 P-labeled phosphorylated peptide substrate, bovine brain calcineurin, and rabbit anti-calcineurin IgG were generous gifts from Dr. Claude B. Klee (National Cancer Institute, Department of Biochemistry). Goat-anti-rabbit IgG conjugated with alkaline phosphatase and the alkaline phosphatase substrates (BCIP and NBT) were obtained from Pierce (Rockford, ILL.). Glutathione Sepharose 4B was from Pharmacia LKB (Uppsala, Sweden). 506BD was prepared by Thomas J. Wandless and Patricia K. Somers in the Harvard laboratory.

Series [4] deals with proteins of Mr 61,000, 57,000, 17,000, and 15,000 from calf thymus (calcineurin A, calcineurin B, calmodulin). Put plainly: Glutathione Sepharose adsorption of target proteins from tissue extracts by immunophilin-drug affinity matrices. The class given is binding, bovine. The conditions noted are these: calf thymus extract; Ca2+ and Mg2+ in incubation buffer. The protocol:
Several factors were taken into account in the design of the first glutathione-Sepharose adsorption experiment. […] In addition, in some experiments, a homobifunctional cross-linking reagent, dimethyl 3,3'-dithiobispropionimidate (DTBP) (Wang et al. 1974, J. Biol. Chem. 249:8005) was added to the incubation mixture to retain target proteins whose affinity for immunophilin or immunophilin-drug complex was not sufficient to withstand the washes following adsorption of the complex to the solid phase.
Adsorption of calcineurin-calmodulin with GFK-FK506 using glutathione Sepharose was performed as follows. Crude tissue extracts, fresh bovine calf brain, thymus, or spleen (Research 87, Revere, MA), were homogenized (1:3 W/V) in 20 mM Tris HCl (pH 6.8), 0.25 mM NaCl, 2 mM β-mercaptoethanal, 0.02% NaN3, 1 mM PMSF, and 5% glycerol. The homogenate was centrifuged at 8,000×g for 4 h. The supernatant was separated and the pellet was resuspended in an equal volume of the same buffer. Centrifugation at 8,000 ×g for 4 h gave a second supernatant. The two supernatants were mixed (1:1 v/v) and centrifuged at 30,000×g for 45 min. The supernatant was then filtered through a 0.45 μm filter and kept at 4° C. before use.
The crude tissue extracts were pre-incubated with glutathione Sepharose (about 1:100 to 1:200 dilution of the sepharose) at 4° C. for 1-3 h to remove the endogenous glutathione binding proteins, including glutathione S-transferases. […] After incubation at 4° C. on a nutator for 1.5 h, 25 μL of 50% (V/V) glutathione Sepharose in buffer A was added and incubation was continued for an additional 0.5 to 2 h. The Sepharose beads were precipitated by centrifugation on a microcentrifuge at 5,000×g for 2 min. The glutathione Sepharose beads were washed three times with 0.5 mL buffer A containing 0.2% Triton X-100. The washed glutathione Sepharose was then resuspended in 25 μL of 2× SDS sample buffer, heated in boiling water for 3 min, and centrifuged for 2 min. The supernatant was subjected to SDS-PAGE followed by silver staining. […]

Series [5] relates to T-cell receptor-mediated signaling pathway. The note with it: cited from earlier work.

Entries after “also recorded” stand apart in the source; their conditions may differ.

T2 sequence (P63099 2-170 limits assumed, other chains not shown): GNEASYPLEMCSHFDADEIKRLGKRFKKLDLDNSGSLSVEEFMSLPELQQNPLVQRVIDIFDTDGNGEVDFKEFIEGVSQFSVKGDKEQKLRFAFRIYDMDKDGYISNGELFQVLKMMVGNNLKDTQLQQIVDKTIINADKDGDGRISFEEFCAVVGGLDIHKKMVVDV

In the case of `O=C(O)CN(CCOCCOCCN(CC(=O)O)CC(=O)O)CC(=O)O` [EGTA], the “elution of the four target proteins from the immobilized immunophilin-drug matrix” value in series [1] is reported as “able to effectively elute; also recorded: capable of eluting”.
`C=CC[C@@H]1/C=C(\C)C[C@H](C)C[C@H](OC)[C@H]2O[C@@](O)(C(=O)C(=O)N3CCCC[C@H]3C(=O)O[C@H](/C(C)=C/[C@@H]3CC[C@@H](O)[C@H](OC)C3)[C@H](C)[C@@H](O)CC1=O)[C@H](C)C[C@@H]2OC` [FK506]: the “effect on phosphatase activity of calcineurin towards para-nitrophenyl phosphate” value in series [2] is “no effect”. In series [3], the “effect on phosphatase activity of calcineurin towards the phosphopeptide substrate” value was “no effect”. For the same compound, in series [4], the “retention/adsorption of the Mr 61,000, 57,000, 17,000 and 15,000 proteins by the affinity matrix” value (from here on “retention/adsorption”) is “do not retain”. For the same compound, the “concentration needed to interfere with T-cell receptor-mediated signaling, relative to CsA” value in series [5] (lower concentrations than CsA) is listed as 100 fold.
For `CO[C@H]1C[C@@H]2CC[C@@H](C)[C@@](O)(O2)C(=O)C(=O)N2CCCC[C@H]2C(=O)O[C@H]([C@H](C)C[C@@H]2CC[C@@H](O)[C@H](OC)C2)CC(=O)[C@H](C)/C=C(\C)[C@@H](O)[C@@H](OC)C(=O)[C@H](C)C[C@H](C)/C=C/C=C/C=C/1C` [rapamycin], the “effect on phosphatase activity of calcineurin towards para-nitrophenyl phosphate” value in series [2] is reported as “no effect”. Also, the “effect on phosphatase activity of calcineurin towards the phosphopeptide substrate” value in series [3] is on record as “no effect”. In addition, the “retention/adsorption” value in series [4] was “do not retain”. Also, the “inhibition of TCR-mediated signaling” value in series [5] (previous observations) is “inhibits different, calcium-independent signaling pathways”.
Turning to “FKBP12: recombinant human immunophilin binding FK506 and rapamycin”, the “effect on phosphatase activity of calcineurin towards para-nitrophenyl phosphate” value in series [2] is recorded as “no effect”. Also, the “effect on phosphatase activity of calcineurin towards the phosphopeptide substrate” value in series [3] was “no effect”. The “retention/adsorption” value in series [4] is “do not retain”.
Take “cyclophilin A: recombinant human immunophilin which complexes with cyclosporine A”: the “effect on phosphatase activity of calcineurin towards para-nitrophenyl phosphate” value in series [2] is recorded as “no effect”. Further, the “effect on phosphatase activity of calcineurin towards the phosphopeptide substrate” value in series [3] is given as “no effect”.
